Earlier results in patent US6726673B1, “Methods and apparatus for improved administration of testosterone pharmaceuticals” (Zars, Inc., priority 1999, dated 2004).

Conditions: following intramuscular injection, absorbed gradually from the lipid tissue phase at the injection site

SMILES: CCCCCCC(=O)O[C@H]1CC[C@H]2[C@@H]3CCC4=CC(=O)CC[C@]4(C)[C@H]3CC[C@]12C [testosterone enanthate]
- duration of action: 2-4 weeks
